# Assay results from US11274332B2, “Methods of administering 3,4-diaminopyridine” (SERB SA, priority 2011, dated 2022).
# Several values for one entry are separate records, joined by “and”; a condition that tells them apart may be missing. Identical values can stand only once.
# Assay: Food-effect crossover study, adverse events after single 20 mg amifampridine phosphate in healthy subjects (Examples 10, 11)
# Assay type: in vivo
# Method: This was a randomized, open-label, 2-treatment, 2-period crossover study with 44 completed subjects to assess the safety, tolerability, and the effect of food on the relative bioavailability of a single dose of amifampridine phosphate.
# Safety was evaluated for all subjects who take at least one dose of 3,4-DAP. Safety was evaluated by recording the incidence of adverse events (AEs), physical examination, vital signs, concomitant medications, clinical laboratory assessments, and 12-lead electrocardiogram (ECG).
# Analysis for the following safety parameters was carried out on the Safety Population: AEs which included all AEs, AEs by severity, drug-related AEs, deaths, SAEs, AEs leading to study discontinuation, and most frequent AEs, standard clinical laboratory tests, vital signs, ECG measurements, routine physical examinations, and prior and concomitant medications. The cut-off for frequency of AEs reported was determined based on the data. No formal statistical testing was performed for the safety analyses; only descriptive statistics were provided. Appropriate descriptive statistics for the safety data were determined using SAS Version 9.2.
# AEs were coded according to the Medical Dictionary for Regulatory Activities (MedDRA; Version 13.0). […] The occurrence of AEs was assessed continuously from the time the subject signed the VID and consent. The reporting period for non-serious AEs was from the first dose to the final study visit. The investigator determined the severity of each event and the relationship of an AE to the IP and recorded it on the source documents and AE CRF. The nature, time of onset, duration, severity, and relationship to study drug was documented, including documentation of investigator assessment and review. All events were assessed to determine if the AE was serious.
# The Investigator determined the severity of each event and the event was recorded on the source documents and AE CRF. A coding of “mild” meant there was no limitation of usual activities, “moderate” meant there was some limitation of usual activities, “severe” meant there was an inability to carry out usual activities.
# The reporting period for AEs that met the criteria of an SAE began from the time of signing the VID and consent form through follow-up or early termination. […] Clinical Laboratory Assessments
smiles,measurement,setting,value
"Nc1ccncc1N.O=P(O)(O)O [amifampridine phosphate, 3,4-diaminopyridine phosphate]","Abdominal Pain Upper, drug-related AE: % of subjects",Fasted N=45,4%
same,"Abdominal Pain Upper, drug-related AE: events",Fasted N=45,2
same,"Abdominal Pain Upper, drug-related AE: subjects",Fasted N=45,2
same,"Abdominal Pain, drug-related AE: % of subjects",Fasted N=45,7%
same,"Abdominal Pain, drug-related AE: events",Fasted N=45,3
same,"Abdominal Pain, drug-related AE: subjects",Fasted N=45,3
same,"Abdominal Tenderness, drug-related AE: % of subjects",Fasted N=45,2%
same,"Abdominal Tenderness, drug-related AE: events",Fasted N=45,1
same,"Abdominal Tenderness, drug-related AE: subjects",Fasted N=45,1
same,"Acne, drug-related AE: % of subjects",Fasted N=45,2%
same,"Acne, drug-related AE: events",Fasted N=45,1
same,"Acne, drug-related AE: subjects",Fasted N=45,1
same,"All treatment emergent AEs, Mild: % of subjects",Fasted N=45,53%
same,"All treatment emergent AEs, Mild: events",Fasted N=45,60
same,"All treatment emergent AEs, Mild: subjects",Fasted N=45,24
same,"All treatment emergent AEs, Moderate: % of subjects",Fasted N=45,2%
same,"All treatment emergent AEs, Moderate: events",Fasted N=45,1
same,"All treatment emergent AEs, Moderate: subjects",Fasted N=45,1
same,"All treatment emergent AEs, Severe: % of subjects",Fasted N=45,(0%) [0]
same,"All treatment emergent AEs, Severe: events",Fasted N=45,(0%) [0]
same,"All treatment emergent AEs, Severe: subjects",Fasted N=45,0
same,"All treatment emergent AEs, Total: events",Fasted N=45,61
same,"Constipation, drug-related AE: % of subjects",Fasted N=45,(0%) [0]
same,"Constipation, drug-related AE: events",Fasted N=45,(0%) [0]
same,"Constipation, drug-related AE: subjects",Fasted N=45,0
same,"Diarrhoea, drug-related AE: % of subjects",Fasted N=45,2%
same,"Diarrhoea, drug-related AE: events",Fasted N=45,1
same,"Diarrhoea, drug-related AE: subjects",Fasted N=45,1
same,Discontinued due to adverse events: % of subjects,Fasted N=45,(0%) [0]
same,Discontinued due to adverse events: events,Fasted N=45,(0%) [0]
same,Discontinued due to adverse events: subjects,Fasted N=45,0
same,"Dizziness, drug-related AE: % of subjects",Fasted N=45,11%
same,"Dizziness, drug-related AE: events",Fasted N=45,5
same,"Dizziness, drug-related AE: subjects",Fasted N=45,5
same,"Dysgeusia, drug-related AE: % of subjects",Fasted N=45,2%
same,"Dysgeusia, drug-related AE: events",Fasted N=45,1
same,"Dysgeusia, drug-related AE: subjects",Fasted N=45,1
same,"Fatigue, drug-related AE: % of subjects",Fasted N=45,2%
same,"Fatigue, drug-related AE: events",Fasted N=45,1
same,"Fatigue, drug-related AE: subjects",Fasted N=45,1
same,"Feeling Hot, drug-related AE: % of subjects",Fasted N=45,2%
same,"Feeling Hot, drug-related AE: events",Fasted N=45,1
same,"Feeling Hot, drug-related AE: subjects",Fasted N=45,1
same,"Flushing, drug-related AE: % of subjects",Fasted N=45,(0%) [0]
same,"Flushing, drug-related AE: events",Fasted N=45,(0%) [0]
same,"Flushing, drug-related AE: subjects",Fasted N=45,0
same,"Gastrointestinal Disorders Total, drug-related AE: % of subjects",Fasted N=45,16%
same,"Gastrointestinal Disorders Total, drug-related AE: events",Fasted N=45,10
same,"Gastrointestinal Disorders Total, drug-related AE: subjects",Fasted N=45,7
same,"General Disorders and Administration Site Conditions Total, drug-related AE: % of subjects",Fasted N=45,4%
same,"General Disorders and Administration Site Conditions Total, drug-related AE: events",Fasted N=45,2
same,"General Disorders and Administration Site Conditions Total, drug-related AE: subjects",Fasted N=45,2
same,"Headache, drug-related AE: % of subjects",Fasted N=45,9%
same,"Headache, drug-related AE: events",Fasted N=45,4
same,"Headache, drug-related AE: subjects",Fasted N=45,4
same,"Hypoaesthesia Facial, drug-related AE: % of subjects",Fasted N=45,2%
same,"Hypoaesthesia Facial, drug-related AE: events",Fasted N=45,1
same,"Hypoaesthesia Facial, drug-related AE: subjects",Fasted N=45,1
same,"Hypoaesthesia Oral, drug-related AE: % of subjects",Fasted N=45,7%
same,"Hypoaesthesia Oral, drug-related AE: events",Fasted N=45,3
same,"Hypoaesthesia Oral, drug-related AE: subjects",Fasted N=45,3
same,"Hypoaesthesia, drug-related AE: % of subjects",Fasted N=45,4%
same,"Hypoaesthesia, drug-related AE: events",Fasted N=45,2
same,"Hypoaesthesia, drug-related AE: subjects",Fasted N=45,2
same,"Nausea, drug-related AE: % of subjects",Fasted N=45,7%
same,"Nausea, drug-related AE: events",Fasted N=45,3
same,"Nausea, drug-related AE: subjects",Fasted N=45,3
same,"Nervous System Disorders Total, drug-related AE: % of subjects",Fasted N=45,47%
same,"Nervous System Disorders Total, drug-related AE: events",Fasted N=45,43
same,"Nervous System Disorders Total, drug-related AE: subjects",Fasted N=45,21
same,"Paraesthesia Oral, drug-related AE: % of subjects",Fasted N=45,29%
same,"Paraesthesia Oral, drug-related AE: events",Fasted N=45,15
same,"Paraesthesia Oral, drug-related AE: subjects",Fasted N=45,13
same,"Paraesthesia, drug-related AE: % of subjects",Fasted N=45,22%
same,"Paraesthesia, drug-related AE: events",Fasted N=45,12
same,"Paraesthesia, drug-related AE: subjects",Fasted N=45,10
same,"Possibly or probably related AEs, Mild: % of subjects",Fasted N=45,47%
same,"Possibly or probably related AEs, Mild: events",Fasted N=45,55
same,"Possibly or probably related AEs, Mild: subjects",Fasted N=45,21
same,"Possibly or probably related AEs, Moderate: % of subjects",Fasted N=45,2%
same,"Possibly or probably related AEs, Moderate: events",Fasted N=45,1
same,"Possibly or probably related AEs, Moderate: subjects",Fasted N=45,1
same,"Possibly or probably related AEs, Severe: % of subjects",Fasted N=45,(0%) [0]
same,"Possibly or probably related AEs, Severe: events",Fasted N=45,(0%) [0]
same,"Possibly or probably related AEs, Severe: subjects",Fasted N=45,0
same,"Possibly or probably related AEs, Total: % of subjects",Fasted N=45,47%
same,"Possibly or probably related AEs, Total: events",Fasted N=45,56
same,"Possibly or probably related AEs, Total: subjects",Fasted N=45,21
same,Serious adverse events: % of subjects,Fasted N=45,(0%) [0]
same,Serious adverse events: events,Fasted N=45,(0%) [0]
same,Serious adverse events: subjects,Fasted N=45,0
same,"Skin and Subcutaneous Tissue Disorders Total, drug-related AE: % of subjects",Fasted N=45,2%
same,"Skin and Subcutaneous Tissue Disorders Total, drug-related AE: events",Fasted N=45,1
same,"Skin and Subcutaneous Tissue Disorders Total, drug-related AE: subjects",Fasted N=45,1
same,"Vascular Disorders Total, drug-related AE: % of subjects",Fasted N=45,(0%) [0]
same,"Vascular Disorders Total, drug-related AE: events",Fasted N=45,(0%) [0]
same,"Vascular Disorders Total, drug-related AE: subjects",Fasted N=45,0
same,"All treatment emergent AEs, Total: subjects","Fasted N=45, phosphate",23 and 24
same,"Abdominal Pain Upper, drug-related AE: % of subjects",Fed N=46,(0%) [0]
same,"Abdominal Pain Upper, drug-related AE: events",Fed N=46,(0%) [0]
same,"Abdominal Pain Upper, drug-related AE: subjects",Fed N=46,0
same,"Abdominal Pain, drug-related AE: % of subjects",Fed N=46,(0%) [0]
same,"Abdominal Pain, drug-related AE: events",Fed N=46,(0%) [0]
same,"Abdominal Pain, drug-related AE: subjects",Fed N=46,0
same,"Abdominal Tenderness, drug-related AE: % of subjects",Fed N=46,(0%) [0]
same,"Abdominal Tenderness, drug-related AE: events",Fed N=46,(0%) [0]
same,"Abdominal Tenderness, drug-related AE: subjects",Fed N=46,0
same,"Acne, drug-related AE: % of subjects",Fed N=46,(0%) [0]
same,"Acne, drug-related AE: events",Fed N=46,(0%) [0]
same,"Acne, drug-related AE: subjects",Fed N=46,0
same,"All treatment emergent AEs, Mild: % of subjects",Fed N=46,48%
same,"All treatment emergent AEs, Mild: events",Fed N=46,38
same,"All treatment emergent AEs, Mild: subjects",Fed N=46,22
same,"All treatment emergent AEs, Moderate: % of subjects",Fed N=46,2%
same,"All treatment emergent AEs, Moderate: events",Fed N=46,1
same,"All treatment emergent AEs, Moderate: subjects",Fed N=46,1
same,"All treatment emergent AEs, Severe: % of subjects",Fed N=46,2%
same,"All treatment emergent AEs, Severe: events",Fed N=46,1
same,"All treatment emergent AEs, Severe: subjects",Fed N=46,1
same,"All treatment emergent AEs, Total: events",Fed N=46,40
same,"Constipation, drug-related AE: % of subjects",Fed N=46,2%
same,"Constipation, drug-related AE: events",Fed N=46,1
same,"Constipation, drug-related AE: subjects",Fed N=46,1
